In paper PMC3899232, “Peptide Binding Properties of the Three PDZ Domains of Bazooka (Drosophila Par-3)” (PLoS ONE, 2014):
“And” between values parts separate entries of the source, which are not always exact repeats. Equal values may be shown once. One block for each molecule: values may come before it. Ends that are not written are not given here. Peptide text beside a SMILES is read from it. * marks the point of attachment. Biotin = O=C1N[C@H]2[C@H](CS[C@H]2CCCCC(=O)*)N1

Key:
[1] = target: GST-PDZ3 (Baz PDZ3) (Drosophila melanogaster, UniProt Q0KHR3); test: SPR binding of peptides to immobilized GST-PDZ3 (Biacore 3000); details: for Kd: GST-PDZ3 immobilized on CM5 at 30 µg/ml in 10 mM sodium acetate pH 5.5, HBS-EP running buffer pH 7.4, 1:1 binding model with drifting baseline
Sequence of GST-PDZ3 (Baz PDZ3) (Q0KHR3 1-1520): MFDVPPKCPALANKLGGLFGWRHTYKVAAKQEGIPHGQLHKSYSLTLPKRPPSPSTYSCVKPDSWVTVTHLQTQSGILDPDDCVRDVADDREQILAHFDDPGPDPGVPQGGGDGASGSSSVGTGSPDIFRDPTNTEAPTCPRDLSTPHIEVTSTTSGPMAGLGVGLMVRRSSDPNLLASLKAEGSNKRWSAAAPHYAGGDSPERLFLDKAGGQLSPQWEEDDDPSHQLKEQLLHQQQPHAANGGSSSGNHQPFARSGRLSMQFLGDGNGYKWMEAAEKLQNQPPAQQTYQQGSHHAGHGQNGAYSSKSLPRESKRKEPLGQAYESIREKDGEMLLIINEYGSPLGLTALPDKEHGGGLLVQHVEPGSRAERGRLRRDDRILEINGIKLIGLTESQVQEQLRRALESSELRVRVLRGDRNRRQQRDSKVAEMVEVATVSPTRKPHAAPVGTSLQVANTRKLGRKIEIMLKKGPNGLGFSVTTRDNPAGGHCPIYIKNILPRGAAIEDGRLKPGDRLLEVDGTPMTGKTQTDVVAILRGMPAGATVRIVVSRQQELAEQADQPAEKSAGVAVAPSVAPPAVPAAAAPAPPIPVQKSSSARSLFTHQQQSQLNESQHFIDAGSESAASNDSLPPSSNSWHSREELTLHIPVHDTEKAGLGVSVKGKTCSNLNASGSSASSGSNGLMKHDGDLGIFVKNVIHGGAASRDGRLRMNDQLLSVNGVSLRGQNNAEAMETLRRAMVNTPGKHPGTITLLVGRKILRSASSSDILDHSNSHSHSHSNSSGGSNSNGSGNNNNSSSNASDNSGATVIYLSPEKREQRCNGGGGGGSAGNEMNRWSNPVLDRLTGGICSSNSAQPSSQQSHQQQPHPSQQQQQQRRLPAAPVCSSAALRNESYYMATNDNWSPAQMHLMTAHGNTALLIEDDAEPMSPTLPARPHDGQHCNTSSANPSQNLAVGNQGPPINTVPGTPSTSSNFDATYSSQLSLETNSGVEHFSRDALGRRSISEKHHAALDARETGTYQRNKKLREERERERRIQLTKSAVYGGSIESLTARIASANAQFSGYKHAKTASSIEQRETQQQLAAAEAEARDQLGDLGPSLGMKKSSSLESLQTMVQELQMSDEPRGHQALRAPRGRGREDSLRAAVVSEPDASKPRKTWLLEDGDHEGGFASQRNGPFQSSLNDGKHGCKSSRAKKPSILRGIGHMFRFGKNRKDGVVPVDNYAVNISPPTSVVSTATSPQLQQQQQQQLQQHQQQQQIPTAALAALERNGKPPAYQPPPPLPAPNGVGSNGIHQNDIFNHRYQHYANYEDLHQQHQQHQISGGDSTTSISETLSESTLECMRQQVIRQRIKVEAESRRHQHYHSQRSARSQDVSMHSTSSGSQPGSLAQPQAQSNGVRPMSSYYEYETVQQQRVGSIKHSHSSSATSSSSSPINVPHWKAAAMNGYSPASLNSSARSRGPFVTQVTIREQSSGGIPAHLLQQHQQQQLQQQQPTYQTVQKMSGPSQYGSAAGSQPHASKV
Experimental: (§1) To test the binding of purified peptides to the PDZ domain GST fusion proteins, we acquired one peptide for each PDZ domain corresponding to single peptides identified by phage display (Fig. 3A). We separately immobilized PDZ domain GST fusion proteins on solid supports and analyzed peptide binding by surface plasmon resonance (SPR).
(§2) Binding experiments were conducted with a Biacore 3000 biosensor (GE Healthcare, USA), as described. Specifically, the GST fusion proteins of each PDZ domain alone or of the PDZ domains in tandem were immobilized on CM5 chips (GE Healthcare) at a concentration of 30 µg/ml in 10 mM sodium acetate (pH 5.5) for PDZ1, PDZ3 and PDZ1-3, and in 10 mM HEPES (pH 7.0) for PDZ2. The peptides for SPR were biotinylated but otherwise identical to those indentified by phage display (Peptide 1, Biotin-SAPGGGLRIVNGLWIF; Peptide 2, Biotin-SAPGGGDREWWV; Peptide 3, Biotin-SAPGGGRVLWFDLGIF; synthesized by Sheldon Biotechnology Centre, McGill University, Canada). All peptides were solubilized in HBS-EP running buffer (10 mM Hepes pH 7.4, 150 mM NaCl, 3 mM EDTA, 0.005% Surfactant P20) and were flowed over the immobilized proteins in this buffer. For Peptide 1 and Peptide 3, KD values were determined with a 1∶1 binding model with drifting baseline. For Peptide 2, KD values were determined with a steady state model.

[2] = target: GST-PDZ1-3 (Baz PDZ domains in tandem) (Drosophila melanogaster, UniProt Q0KHR3); test: SPR binding of peptides to immobilized tandem GST-PDZ1-3 (Biacore 3000); details: for KD values of GST-PDZ1-3 compared with single GST-PDZ domains (in words): SPR, HBS-EP pH 7.4, tandem versus single PDZ domain alone; for Kd: tandem GST-PDZ1-3 immobilized on CM5 at 30 µg/ml in 10 mM sodium acetate pH 5.5, HBS-EP running buffer pH 7.4
Sequence of GST-PDZ1-3 (Baz PDZ domains in tandem) (Q0KHR3 1-1520): as above
Text: With the binding strengths of individual PDZ domain-peptide interactions quantified, we next investigated whether the natural tandem arrangement of the PDZ domains affects their peptide binding. For these experiments, we purfied GST-PDZ1-3 and confirmed its stability by SDS-PAGE (Fig. 2B). To test the binding properties of the individual PDZ domains within the tandem, we separately probed GST-PDZ1-3 with Peptides 1, 2 and 3. […] To assess binding quantitatively, we determined the KD values of GST-PDZ1-3 binding to each peptide. […] Thus, the peptide binding pockets of each PDZ domain appear to be unaffected by tandem organization of the PDZ domains.
as §2

[3] = target: GST-PDZ1 (Baz PDZ1) (Drosophila melanogaster, UniProt Q0KHR3); test: SPR binding of peptides to immobilized GST-PDZ1 (Biacore 3000); details: for Kd: GST-PDZ1 immobilized on CM5 at 30 µg/ml in 10 mM sodium acetate pH 5.5, HBS-EP running buffer pH 7.4, 1:1 binding model with drifting baseline
Sequence of GST-PDZ1 (Baz PDZ1) (Q0KHR3 1-1520): as above
Experimental: as §1, §2

[4] = target: GST-PDZ2 (Baz PDZ2) (Drosophila melanogaster, UniProt Q0KHR3); test: SPR binding of peptides to immobilized GST-PDZ2 (Biacore 3000); details: for Kd: GST-PDZ2 immobilized on CM5 at 30 µg/ml in 10 mM HEPES pH 7.0, HBS-EP running buffer pH 7.4, steady state model
Sequence of GST-PDZ2 (Baz PDZ2) (Q0KHR3 1-1520): as above
Experimental: as §1, §2

[5] = target: GST-PDZ3 (GST fusion protein of Baz PDZ3) (Drosophila); test: SPR; Biacore 3000; GST fusion protein immobilised on CM5 chip (30 µg/ml in 10 mM sodium acetate pH 5.5); Peptide 1 or Peptide 3 flowed in HBS-EP (10 mM Hepes pH 7.4, 150 mM NaCl, 3 mM EDTA, 0.005% Surfactant P20); 1:1 binding model with drifting baseline
[6] = target: GST-Baz PDZ1-3 (fusion protein containing all three PDZ domains and their normal linker regions) (Drosophila); test: as above
[7] = target: GST-PDZ1 (GST fusion protein of Baz PDZ1) (Drosophila); test: as above
[8] = target: GST-PDZ2 (GST fusion protein of Baz PDZ2) (Drosophila); test: SPR; Biacore 3000; GST fusion protein immobilised on CM5 chip (30 µg/ml; PDZ2 in 10 mM HEPES pH 7.0, PDZ1-3 in 10 mM sodium acetate pH 5.5); Peptide 2 flowed in HBS-EP (10 mM Hepes pH 7.4, 150 mM NaCl, 3 mM EDTA, 0.005% Surfactant P20); steady state model
[9] = target: GST-Baz PDZ1-3 (fusion protein containing all three PDZ domains and their normal linker regions) (Drosophila); test: as above
[10] = replicate 1 (separately purified proteins, separately prepared peptides)
[11] = replicate 2 (separately purified proteins, separately prepared peptides)
[12] = replicate 1 (separately purified proteins, separately prepared peptides), Peptides 1 and 3: 1:1 binding model with drifting baseline
[13] = replicate 2 (separately purified proteins, separately prepared peptides), Peptides 1 and 3: 1:1 binding model with drifting baseline

Molecule: CC[C@H](C)[C@H](NC(=O)[C@H](Cc1c[nH]c2ccccc12)NC(=O)[C@H](CC(C)C)NC(=O)CNC(=O)[C@H](CC(N)=O)NC(=O)[C@@H](NC(=O)[C@@H](NC(=O)[C@H](CCCNC(=N)N)NC(=O)[C@H](CC(C)C)NC(=O)CNC(=O)CNC(=O)CNC(=O)[C@@H]1CCCN1C(=O)[C@H](C)NC(=O)[C@H](CO)NC(=O)CCCC[C@@H]1SC[C@@H]2NC(=O)N[C@@H]21)[C@@H](C)CC)C(C)C)C(=O)N[C@@H](Cc1ccccc1)C(=O)O [Peptide 1, Biotin-SAPGGGLRIVNGLWIF] (Biotin-SAPGGGLRIVNGLWIF-OH)
KD values (in words) ([3]; SPR, HBS-EP pH 7.4, GST-PDZ1, summary of Table 1): in the nM range
Kd [3, 10]: 164 nM
Kd [3, 11]: 186 nM
KD values of GST-PDZ1-3 compared with single GST-PDZ domains (in words) [2]: very close to those of each GST-PDZ domain alone
Kd [2, 12]: 263 nM
Kd [2, 13]: 245 nM

Molecule: CC(C)[C@H](NC(=O)[C@H](Cc1c[nH]c2ccccc12)NC(=O)[C@H](Cc1c[nH]c2ccccc12)NC(=O)[C@H](CCC(=O)O)NC(=O)[C@H](CCCNC(=N)N)NC(=O)[C@H](CC(=O)O)NC(=O)CNC(=O)CNC(=O)CNC(=O)[C@@H]1CCCN1C(=O)[C@H](C)NC(=O)[C@H](CO)NC(=O)CCCC[C@@H]1SC[C@@H]2NC(=O)N[C@@H]21)C(=O)O [Peptide 2, Biotin-SAPGGGDREWWV] (Biotin-SAPGGGDREWWV-OH)
KD values (in words) ([4]; SPR, HBS-EP pH 7.4, GST-PDZ2, summary of Table 1): in the µM range
Kd [4, 10]: 17700 nM
Kd [4, 11]: 13000 nM
KD values of GST-PDZ1-3 compared with single GST-PDZ domains (in words) [2]: very close to those of each GST-PDZ domain alone
Kd ([2]; replicate 1 (separately purified proteins, separately prepared peptides), Peptide 2: steady state model): 9130 nM
Kd ([2]; replicate 2 (separately purified proteins, separately prepared peptides), Peptide 2: steady state model): 9980 nM

Molecule: Biotin-SAPGGGRVLWFDLGIF [Peptide 3 (Biotin-…)]
Kd [5]: 25.2 nM and 45.9 nM
Kd [6]: 49.4 nM and 32.6 nM

The next lines start with results.

KD values (in words) ([1]; SPR, HBS-EP pH 7.4, GST-PDZ3, summary of Table 1): in the nM range
Kd [1, 10]: 45.9 nM
Kd [1, 11]: 25.2 nM
Kd [2, 12]: 49.4 nM
Kd [2, 13]: 32.6 nM
Molecule: CC[C@H](C)[C@H](NC(=O)CNC(=O)[C@H](CC(C)C)NC(=O)[C@H](CC(=O)O)NC(=O)[C@H](Cc1ccccc1)NC(=O)[C@H](Cc1c[nH]c2ccccc12)NC(=O)[C@H](CC(C)C)NC(=O)[C@@H](NC(=O)[C@H](CCCNC(=N)N)NC(=O)CNC(=O)CNC(=O)CNC(=O)[C@@H]1CCCN1C(=O)[C@H](C)NC(=O)[C@H](CO)NC(=O)CCCC[C@@H]1SC[C@@H]2NC(=O)N[C@@H]21)C(C)C)C(=O)N[C@@H](Cc1ccccc1)C(=O)O [Peptide 3, Biotin-SAPGGGRVLWFDLGIF] (Biotin-SAPGGGRVLWFDLGIF-OH)
KD values of GST-PDZ1-3 compared with single GST-PDZ domains (in words) [2]: very close to those of each GST-PDZ domain alone

Kd [6]: 263 nM and 245 nM
Kd [7]: 164 nM and 186 nM
Molecule: Biotin-SAPGGGLRIVNGLWIF [Peptide 1 (Biotin-…)]

Kd [8]: 17700 nM and 13000 nM
Kd [9]: 9130 nM and 9980 nM
Molecule: Biotin-SAPGGGDREWWV [Peptide 2 (Biotin-…)]
